This is an account of results in PMC11279411, “Structure-Based Identification of Novel Histone Deacetylase 4 (HDAC4) Inhibitors” (Pharmaceuticals, 2024).

Like-named read-outs stand apart in the source and are kept apart here.

The target of data set [1] is HDAC3 (Homo sapiens, UniProt O15379). Description: HDAC3 fluorogenic activity assay (BPS Bioscience kit). To be noted: for decrease of HDAC3 activity / relative percent activity of HDAC3 (activity retained): 100 μM compound; for relative percent activity of HDAC3 (activity retained): compared to absence of inhibitor.
Chain of HDAC3 (O15379 whole entry): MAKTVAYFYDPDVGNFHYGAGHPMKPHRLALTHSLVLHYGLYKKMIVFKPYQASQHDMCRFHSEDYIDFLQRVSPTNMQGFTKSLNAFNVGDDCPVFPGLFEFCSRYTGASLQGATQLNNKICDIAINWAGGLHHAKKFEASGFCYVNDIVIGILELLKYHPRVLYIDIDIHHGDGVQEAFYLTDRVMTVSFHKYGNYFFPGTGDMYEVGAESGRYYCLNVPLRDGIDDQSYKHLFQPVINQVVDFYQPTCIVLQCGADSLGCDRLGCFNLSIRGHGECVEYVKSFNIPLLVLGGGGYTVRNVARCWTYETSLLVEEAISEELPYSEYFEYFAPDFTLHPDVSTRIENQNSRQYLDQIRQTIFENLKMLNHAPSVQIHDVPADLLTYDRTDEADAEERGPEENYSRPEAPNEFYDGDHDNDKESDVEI
Chain of HDAC3 (Q9Y618 395-489 partner limits assumed): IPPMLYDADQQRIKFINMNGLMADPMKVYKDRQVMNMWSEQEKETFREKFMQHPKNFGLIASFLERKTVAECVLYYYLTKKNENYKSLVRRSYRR
Method: (§2) HDAC3 and HDAC4 activity assays were performed using fluorogenic assay kits obtained from BPS Bioscience (San Diego, CA, USA) by following the protocol that is supplied by the manufacturer. Briefly, purified enzyme (40 pg/μL HDAC3 or 1.2 pg/μL HDAC4) in a total of 50 μL buffer containing 0.1% BSA was incubated with substrate (20 μM for HDAC3 and 2 μM for HDAC4) at 37 °C for 30 min in a 96-well plate. A fluorescence developer (50 μL) was added and the plate was incubated at room temperature for a further 15 min. The activity of the enzymes in the absence and presence of compounds was measured on a BioTek Cytation 5 plate reader, exciting the samples at 350 nm and measuring emission at 450 nm. Compounds were prepared as 10 mM stocks in DMSO, diluted to 1 mM in 20 mM NaHEPES, 150 mM NaCl, pH 7.4 buffer, and were screened at 100 μM in the assays at least in duplicate. A positive control with 1% DMSO added in lieu of an inhibitor and a negative control without enzyme were also prepared in each assay plate. The negative control was subtracted from all fluorescence values, while the positive control was used as the reference for 100% activity of the enzyme.
In data set [2] the target is HDAC4 (Homo sapiens, UniProt P56524). Kind of data set: HDAC4 fluorogenic activity assay (BPS Bioscience kit). To be noted: for relative percent activity of HDAC4 (activity retained): 100 μM compound, compared to absence of inhibitor; for IC50 fold lower for HDAC4 than HDAC3: selectivity HDAC4 over HDAC3 from IC50 values.
Chain of HDAC4 (P56524 whole entry): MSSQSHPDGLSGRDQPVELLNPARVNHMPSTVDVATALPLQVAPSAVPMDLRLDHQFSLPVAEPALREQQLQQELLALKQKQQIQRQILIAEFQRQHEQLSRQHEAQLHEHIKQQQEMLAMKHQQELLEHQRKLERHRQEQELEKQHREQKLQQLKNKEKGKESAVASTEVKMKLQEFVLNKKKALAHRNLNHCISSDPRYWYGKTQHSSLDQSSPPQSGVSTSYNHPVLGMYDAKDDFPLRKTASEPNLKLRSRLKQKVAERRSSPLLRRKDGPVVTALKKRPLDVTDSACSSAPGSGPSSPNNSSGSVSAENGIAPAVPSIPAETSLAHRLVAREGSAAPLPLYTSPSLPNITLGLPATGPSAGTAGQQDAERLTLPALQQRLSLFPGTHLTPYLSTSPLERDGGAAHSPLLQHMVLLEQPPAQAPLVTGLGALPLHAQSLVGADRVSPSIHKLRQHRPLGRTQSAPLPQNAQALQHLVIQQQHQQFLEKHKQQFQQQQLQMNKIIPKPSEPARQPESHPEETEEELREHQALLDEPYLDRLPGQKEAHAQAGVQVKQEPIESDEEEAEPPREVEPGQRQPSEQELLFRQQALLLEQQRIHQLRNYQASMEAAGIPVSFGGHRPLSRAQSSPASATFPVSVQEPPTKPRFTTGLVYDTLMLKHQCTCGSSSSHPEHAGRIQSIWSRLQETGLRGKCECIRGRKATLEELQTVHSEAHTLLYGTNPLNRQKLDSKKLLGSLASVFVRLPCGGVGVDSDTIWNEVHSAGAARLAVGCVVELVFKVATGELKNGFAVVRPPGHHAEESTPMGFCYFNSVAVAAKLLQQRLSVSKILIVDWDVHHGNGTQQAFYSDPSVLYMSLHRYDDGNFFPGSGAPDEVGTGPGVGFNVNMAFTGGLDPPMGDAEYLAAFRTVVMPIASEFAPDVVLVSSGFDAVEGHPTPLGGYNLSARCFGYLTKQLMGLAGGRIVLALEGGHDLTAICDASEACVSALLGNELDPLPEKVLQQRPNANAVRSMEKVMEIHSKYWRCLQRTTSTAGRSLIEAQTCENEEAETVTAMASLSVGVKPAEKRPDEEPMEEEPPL
Method: as §2
In data set [3] the test system is human breast carcinoma MDA-MB231 cell line. Kind of data set: MTT cell viability assay, MDA-MB231. To be noted: for IC50 / viability at 100 µM: MDA-MB-231, 48 h; for IC50: read-out: IC50 (cell viability); for viability at 100 µM: read-out: Relative cell viability. As to the method:
(§1) Cell viability assays were determined using Methyl Thiazolyl Tetrazolium (MTT) assay (Travigen, Gaithersburg, MD, USA). A total of 5 × 10^3 SW780 (human transitional urinary bladder cancer cell line) or 1 × 10^4 (human triple-negative breast cancer cell line MDA-MB231, American Type Culture Collection [ATCC], Rockville, MD, USA) in 100 µL of culture media were seeded to each well of 96-well culture plates. These cell lines were chosen based on previous work. The MDA-MB231 and SW780 cell lines were cultured in Dulbecco’s modified Eagle’s medium (DMEM) with 10% or 5% heat-inactivated fetal bovine serum, respectively, 100 U/mL penicillin, and 100 µg/mL streptomycin. Cultures were maintained in 5% CO2 at 37 °C and subcultured every 2–3 days. At 24 h after seeding, cells were treated with various concentrations of potential HDAC inhibiting compounds for 48 h (100 µM for initial screening, […], 1, 10, 100, 250, and 500 µM for the dose–response experiment). Subsequently, 10 µL of MTT reagent was added to each well and incubated for 4 h, followed by the addition of 100 µL of detergent reagent. The plate was incubated overnight. The reduced MTT reagent in cultures was measured at 570 nm by using an ELISA reader (Bio-Tek, Winooski, VT, USA). The IC50 for each compound was calculated from fitted nonlinear regression dose–response curves.

Data set [4] deals with transitional urothelial carcinoma SW780 cell line. Description: MTT cell viability assay, SW780. To be noted: Homo sapiens; for IC50 / viability at 100 µM: SW780, 48 h; for IC50: read-out: IC50 (cell viability); for viability at 100 µM: read-out: Relative cell viability. As to the method: as §1
The mark [5] stands for this setting: read-out: IC50 (μM) for HDAC3, highest concentration 500 μM.
Setting [6] is: read-out: IC50 (μM) for HDAC4, highest concentration 500 μM.

Turning to `O=[N+]([O-])c1cc(-c2cccnc2)n[nH]1` [Compound 4135], the half-inhibitory concentration (IC50) is above 500 µM in data set [1] (setting [5]) and 410 ± 240 µM in data set [2] (setting [6]).
On to `COc1cccc2c1cc([N+](=O)[O-])c1c(C(=O)O)cc3c(c12)OCO3` [Compound 11926], for which the half-maximal inhibitory concentration (IC50) in data set [3] (Homo sapiens) is 126 ± 10 µM; in data set [4] it was 223 ± 49 µM; in data set [1], above 500 µM. Further, the viability at 100 µM is below 60% in data set [3] (Homo sapiens) and below 50% in data set [4]. The viability at 500 µM in data set [3] (Homo sapiens, MDA-MB-231, read-out: cell viability) came out at 9%; in data set [4] (SW780, read-out: cell viability), 45%.
For the molecule `CN(C)c1ncnc2c1ncn2-c1ccccc1` [Compound 34488], the “decrease of HDAC3 activity” value in data set [1] is reported as 50%. In addition, the 50% inhibitory concentration (IC50) in data set [1] (setting [5]) was above 500 µM. Further, in data set [2], the “relative percent activity of HDAC4 (activity retained)” value (shortened to “relative percent activity of HDAC4”) is “unchanged”.
On to `CC12CCC(C(NC(=S)NN)C1=O)C2(C)C` (centres unmarked) [Compound 36425], for which the results for the IC50 in data set [1] (setting [5]) and in data set [2] (setting [6]) were above 500 µM and 480 ± 260 µM, respectively.
With `CCCn1cnc2c(Sc3c([N+](=O)[O-])ncn3C)nc(N)nc21` [Compound 44584], in data set [3] (Homo sapiens), the IC50 worked out at 137 ± 18 µM and the viability at 100 µM is below 60%. In data set [4], the half-inhibitory concentration (IC50) amounted to 213 ± 13 µM. Also, in data set [1], the IC50 was above 500 µM and the “decrease of HDAC3 activity” value was 60%. Further, the “relative percent activity of HDAC4” value in data set [2] was “unchanged”.
As to `O=C(CN1CCOCC1)N1CCOCC1` [Compound 51936], the IC50 in data set [1] (setting [5]) was above 500 µM; in data set [2] (setting [6]), 550 ± 350 µM.
`CCOC(=O)C1C(=O)C(=O)N(C(C)C)C1C(=O)OCC` (centres unmarked) [Compound 55172]: the concentration for half-maximal inhibition (IC50) in data set [1] (setting [5]) is above 500 µM.
Regarding `O=C(Nc1ccc(C2=NCCN2)cc1)c1ccc(Cl)c(C(=O)Nc2ccc(C3=NCCN3)cc2)c1` [Compound 67436], in data set [3] (Homo sapiens), the IC50 was found to be 138 ± 23 µM and the viability at 100 µM was below 60%. In addition, in data set [4], the IC50 turned out to be 131 ± 26 µM and the viability at 100 µM was below 50%. In data set [1], the half-maximal inhibitory concentration (IC50) was found to be 9.2 ± 5.2 µM and the “relative percent activity of HDAC3 (activity retained)” value (“relative percent activity of HDAC3” for short) is on record as at most 40%. In addition, in data set [1] (selectivity HDAC3 over HDAC4 from IC50 values), the “HDAC3 IC50 relative to that for HDAC4” value was “five times lower”. For the same molecule, in data set [2], half-maximal inhibition (IC50) was put at 47 ± 28 µM and the “relative percent activity of HDAC4” value was at most 40%.
With `CCOC(=O)C(=CNc1ccccc1Cl)C(=O)OCC` [Compound 79887], the IC50 in data set [1] (setting [5]) is above 500 µM.
Regarding `COc1ccc2c(c1)NP(=S)(Oc1ccccc1)N2` (centres unmarked) [Compound 88402], the Relative cell viability result in data set [3] (MDA-MB231, 100 µM compound, 48 h, untreated cells = 100%) is on record as “did not show activity”. Besides, in data set [1], the midpoint of inhibition, the IC50, lay at 210 ± 60 µM and the “relative percent activity of HDAC3” value came to 75%. In data set [2], the IC50 came to 100 ± 40 µM, the “relative percent activity of HDAC4” value is on record as below 40% and the “IC50 fold lower for HDAC4 than HDAC3” value is “at least 2 fold”.
Take `NS(=O)(=O)c1ccc(N=Nc2ccc(=O)[nH]c2O)cc1` [Compound 134199]: in data set [3] (100 µM), the Relative cell viability result is “little potency”. Besides, the “relative percent activity of HDAC3” value in data set [1] is at most 40%. Further, the figures for the IC50 in data set [1] (setting [5]) and in data set [2] (setting [6]) were 25 ± 7 µM and 33 ± 12 µM, respectively. In data set [2], the “relative percent activity of HDAC4” value is at most 40%.
`NC(=S)NN=Cc1cc(-c2cccc(N)c2)ccn1` [Compound 195327]: in data set [3] (Homo sapiens), the 50% inhibitory concentration (IC50) came out at 37 ± 17 µM and the viability at 100 µM is below 60%. In addition, in data set [4], the concentration for half-maximal inhibition (IC50) amounted to 89 ± 48 µM and the viability at 100 µM is below 50%. Moreover, in data set [1], the IC50 was above 500 µM and the “decrease of HDAC3 activity” value was found to be 80%. In addition, the “IC50 (μM) for HDAC3” value in data set [1] (highest concentration 500 μM) is “no inhibition”. Further, the “relative percent activity of HDAC4” value in data set [2] was “unchanged”. Also, the “IC50 (μM) for HDAC4” value in data set [2] (highest concentration 500 μM) is recorded as “did not inhibit”.
Take `CCOC(=O)C(=NO)C1=CSC2=NNC(C)(C)N12` [Compound 299968]: the IC50 in data set [3] (Homo sapiens) was 113 ± 19 µM; in data set [4], 300 ± 17 µM; in data set [1], above 500 µM; in data set [2] it was 250 ± 170 µM. Besides, the viability at 100 µM in data set [3] (Homo sapiens) is below 60%. Moreover, in data set [2], the “IC50 fold lower for HDAC4 than HDAC3” value is listed as “at least 2 fold”.
In turn, `COc1cc(C2NC(=O)C(C#N)=C(Nc3cccc(C)c3)S2)ccc1O` (centres unmarked) [Compound 319435] returned a half-inhibitory concentration (IC50) in data set [1] above 500 µM. Moreover, in data set [2], the IC50 turned out to be 150 ± 50 µM and the “IC50 fold lower for HDAC4 than HDAC3” value is “at least 2 fold”.
